Test results taken from article PMC11345841, “Exploring 2-Sulfonylpyrimidine Warheads as Acrylamide Surrogates for Targeted Covalent Inhibition: A BTK Story” (Journal of Medicinal Chemistry, 2024).
Read-outs that look alike come from different tables or passages of the source.

What was measured:
FGFR1 = molecular target: T1, FGFR1 (Homo sapiens, UniProt P11362); assay: KINOMEscan ScanTK; type: binding
T1 construct: purchased Eurofins DiscoverX KINOMEscan (scanTK)

[1] = molecular target: T2, EGFR(L747-S752del, P753S) (Homo sapiens, UniProt P00533, DEL747-752/P753S); assay: KINOMEscan ScanTK; type: binding
T2 construct: purchased Eurofins DiscoverX KINOMEscan (scanTK)
T2 sequence (P00533 with tags, fused parts or gaps DEL747-752/P753S limits assumed): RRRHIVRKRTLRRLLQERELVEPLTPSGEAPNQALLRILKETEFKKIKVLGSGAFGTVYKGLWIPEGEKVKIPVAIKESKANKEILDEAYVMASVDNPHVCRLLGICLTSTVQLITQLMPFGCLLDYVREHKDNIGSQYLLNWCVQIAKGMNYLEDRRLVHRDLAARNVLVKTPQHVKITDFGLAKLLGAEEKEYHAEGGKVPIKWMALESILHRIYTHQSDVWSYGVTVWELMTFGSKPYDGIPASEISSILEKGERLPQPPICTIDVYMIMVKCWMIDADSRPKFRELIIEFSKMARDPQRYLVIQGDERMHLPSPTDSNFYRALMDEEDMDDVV

EPHA6 = molecular target: T3, EPHA6 (Homo sapiens, UniProt Q9UF33); assay: KINOMEscan ScanTK; type: binding
T3 construct: purchased Eurofins DiscoverX KINOMEscan (scanTK)
T3 sequence (Q9UF33 23-1036): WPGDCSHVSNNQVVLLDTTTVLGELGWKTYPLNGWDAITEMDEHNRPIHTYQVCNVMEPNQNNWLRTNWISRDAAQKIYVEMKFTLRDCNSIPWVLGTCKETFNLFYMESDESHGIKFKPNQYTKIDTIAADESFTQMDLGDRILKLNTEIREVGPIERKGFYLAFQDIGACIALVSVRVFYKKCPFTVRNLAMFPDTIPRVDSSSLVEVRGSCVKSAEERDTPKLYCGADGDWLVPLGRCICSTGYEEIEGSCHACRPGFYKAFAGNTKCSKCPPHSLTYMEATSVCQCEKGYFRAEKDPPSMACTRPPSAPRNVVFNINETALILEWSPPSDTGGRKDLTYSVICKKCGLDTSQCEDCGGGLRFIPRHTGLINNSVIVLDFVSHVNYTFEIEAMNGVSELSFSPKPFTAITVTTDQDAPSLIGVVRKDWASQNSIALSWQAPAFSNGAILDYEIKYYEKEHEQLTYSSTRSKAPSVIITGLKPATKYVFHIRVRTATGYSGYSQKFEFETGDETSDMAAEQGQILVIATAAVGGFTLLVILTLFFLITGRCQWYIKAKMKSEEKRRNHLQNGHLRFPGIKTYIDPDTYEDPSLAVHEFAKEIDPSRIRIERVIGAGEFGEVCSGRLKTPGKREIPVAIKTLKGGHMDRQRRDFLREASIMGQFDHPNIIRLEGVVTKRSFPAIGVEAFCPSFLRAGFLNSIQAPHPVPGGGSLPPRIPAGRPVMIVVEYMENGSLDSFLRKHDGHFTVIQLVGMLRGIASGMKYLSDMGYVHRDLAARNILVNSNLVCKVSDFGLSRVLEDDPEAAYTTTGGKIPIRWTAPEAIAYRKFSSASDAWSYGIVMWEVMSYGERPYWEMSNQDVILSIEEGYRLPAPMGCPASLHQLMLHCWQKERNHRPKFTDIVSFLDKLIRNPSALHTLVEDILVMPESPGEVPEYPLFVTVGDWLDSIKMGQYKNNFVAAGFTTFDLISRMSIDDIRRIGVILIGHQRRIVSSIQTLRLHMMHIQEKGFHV

EGFR(G719C) = molecular target: T4, EGFR(G719C) (Homo sapiens, UniProt P00533, G719C); assay: KINOMEscan ScanTK; type: binding
T4 construct: purchased Eurofins DiscoverX KINOMEscan (scanTK)

BTK, full length (2–659) = BTK, full length (2–659) (Homo sapiens, UniProt Q06187); assay: Kinact/Ki determination, PhosphoSens progress curve analysis; type: biochemical; settings: BTK; for kinact/KI: read-out: Kinact/Ki
Chain of BTK, full length (2–659) (Q06187 2-659): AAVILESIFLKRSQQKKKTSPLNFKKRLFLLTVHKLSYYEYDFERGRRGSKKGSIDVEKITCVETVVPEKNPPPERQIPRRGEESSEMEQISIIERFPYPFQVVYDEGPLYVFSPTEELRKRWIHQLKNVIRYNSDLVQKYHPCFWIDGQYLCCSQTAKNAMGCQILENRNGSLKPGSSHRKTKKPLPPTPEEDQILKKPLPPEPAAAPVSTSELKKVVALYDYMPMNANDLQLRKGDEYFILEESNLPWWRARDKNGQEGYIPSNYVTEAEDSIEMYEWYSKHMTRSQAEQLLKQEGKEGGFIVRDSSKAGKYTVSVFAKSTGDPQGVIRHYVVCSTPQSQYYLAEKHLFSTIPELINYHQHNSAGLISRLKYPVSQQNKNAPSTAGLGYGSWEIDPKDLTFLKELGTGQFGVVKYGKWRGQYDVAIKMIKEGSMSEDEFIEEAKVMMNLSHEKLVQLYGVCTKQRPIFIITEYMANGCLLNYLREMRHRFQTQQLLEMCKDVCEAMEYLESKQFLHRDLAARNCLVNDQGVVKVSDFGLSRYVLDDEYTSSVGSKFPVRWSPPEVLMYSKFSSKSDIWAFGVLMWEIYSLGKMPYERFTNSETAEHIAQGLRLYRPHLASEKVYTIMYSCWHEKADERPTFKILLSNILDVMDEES
Experimental: Nonlinear regression was performed using the Solver algorithm in Excel. […] Two-step Kinact/Ki fits were extracted from the progress curve analysis of all compounds against BTK, enabling independent Kinact and Ki determinations.

ALK(C1156Y) = molecular target: T5, ALK(C1156Y) (Homo sapiens, UniProt Q9UM73, C1156Y); assay: KINOMEscan ScanTK; type: binding
T5 construct: purchased Eurofins DiscoverX KINOMEscan (scanTK)
T5 sequence (Q9UM73 19-1620 C1156Y): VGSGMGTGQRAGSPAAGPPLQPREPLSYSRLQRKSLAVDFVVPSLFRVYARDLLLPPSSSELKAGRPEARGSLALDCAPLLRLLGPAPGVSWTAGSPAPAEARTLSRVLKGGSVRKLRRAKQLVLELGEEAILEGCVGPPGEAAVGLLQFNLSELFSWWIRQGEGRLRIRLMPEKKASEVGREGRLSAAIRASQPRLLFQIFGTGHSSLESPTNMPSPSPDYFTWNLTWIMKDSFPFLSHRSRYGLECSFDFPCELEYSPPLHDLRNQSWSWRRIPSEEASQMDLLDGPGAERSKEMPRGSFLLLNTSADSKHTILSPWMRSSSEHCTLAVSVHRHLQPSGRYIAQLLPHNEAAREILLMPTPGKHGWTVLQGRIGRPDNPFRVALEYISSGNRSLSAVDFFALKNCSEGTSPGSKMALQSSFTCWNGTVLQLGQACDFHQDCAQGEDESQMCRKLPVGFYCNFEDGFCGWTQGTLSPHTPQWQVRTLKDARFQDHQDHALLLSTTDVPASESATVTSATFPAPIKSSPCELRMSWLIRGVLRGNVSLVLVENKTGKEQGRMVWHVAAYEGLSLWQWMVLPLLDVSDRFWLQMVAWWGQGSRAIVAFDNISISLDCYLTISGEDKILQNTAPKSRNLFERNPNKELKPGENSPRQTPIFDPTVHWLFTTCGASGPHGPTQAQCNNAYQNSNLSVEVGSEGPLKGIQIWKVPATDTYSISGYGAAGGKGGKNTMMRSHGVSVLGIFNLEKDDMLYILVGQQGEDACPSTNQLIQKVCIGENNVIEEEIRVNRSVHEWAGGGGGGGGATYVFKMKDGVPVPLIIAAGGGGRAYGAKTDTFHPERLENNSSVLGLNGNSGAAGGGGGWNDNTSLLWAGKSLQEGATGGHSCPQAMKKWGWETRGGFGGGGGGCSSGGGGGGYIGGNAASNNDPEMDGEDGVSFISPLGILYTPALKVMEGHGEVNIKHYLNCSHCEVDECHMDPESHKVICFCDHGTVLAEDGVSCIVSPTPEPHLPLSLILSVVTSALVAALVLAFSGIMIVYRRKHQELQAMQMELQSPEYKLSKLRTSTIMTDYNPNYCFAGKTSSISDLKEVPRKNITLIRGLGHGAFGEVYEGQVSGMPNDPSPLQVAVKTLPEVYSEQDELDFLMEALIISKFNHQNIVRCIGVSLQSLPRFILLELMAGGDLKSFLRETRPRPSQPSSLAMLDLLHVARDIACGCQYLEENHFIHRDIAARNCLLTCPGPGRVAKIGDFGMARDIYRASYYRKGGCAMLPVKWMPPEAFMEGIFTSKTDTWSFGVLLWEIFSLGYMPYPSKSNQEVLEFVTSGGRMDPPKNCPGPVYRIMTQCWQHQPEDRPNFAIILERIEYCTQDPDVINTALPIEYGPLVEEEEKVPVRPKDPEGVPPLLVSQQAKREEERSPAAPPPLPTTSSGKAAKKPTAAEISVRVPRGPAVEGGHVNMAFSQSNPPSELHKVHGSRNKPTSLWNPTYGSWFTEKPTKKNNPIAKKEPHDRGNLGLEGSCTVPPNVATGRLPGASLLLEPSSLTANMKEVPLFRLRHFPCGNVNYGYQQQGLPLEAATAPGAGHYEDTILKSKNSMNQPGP

[2] = Electrophilic reactivity assessment (GSH assay); settings: up to 6 h at 20 °C, LC-MS
Experimental: Final volume: 1200 μL; final composition: 100 μM compound, 100 μM standard, 1 mM GSH, 5% v/v DMSO. The resulting mixture was kept at 20 °C. Reaction monitoring and rate determination: LC-MS traces of the mixture were acquired every 10 min. Normalized integrations of the starting material and/or product were plotted as a function of time (s), using the 4-hydroxybenzoic acid peak as standard for integral calibration/normalization, allowing extraction of pseudo-first-order reaction rate constants (k’). All measurements were performed in triplicate.

[3] = molecular target: T6, ABL1(F317L)-nonphosphorylated (Homo sapiens, UniProt P00519, F317L); assay: KINOMEscan ScanTK; type: binding
T6 construct: purchased Eurofins DiscoverX KINOMEscan (scanTK)

[4] = molecular target: T7, ABL1(H396P)-phosphorylated (Homo sapiens, UniProt P00519, H396P); assay: KINOMEscan ScanTK; type: binding
T7 construct: purchased Eurofins DiscoverX KINOMEscan (scanTK)

OCI-LY7 cells = assay: Anti-IgM-induced Ca2+ flux assay; type: cell-based, human; settings: 1 h pretreatment, 1000 nM or lower concentrations
Experimental: The effects of compounds on Ca^2+ release were then analyzed following treatment of OCI-LY7 cells (derived from a diffuse large B-cell lymphoma (DLBCL)) with anti-IgM to cross-link surface IgM (sIgM). […] For 8a and 8d, we performed similar experiments at lower concentrations.
Flow cytometry was performed using a FACS Canto II system (BD Biosciences). Data was acquired for 30 s before cells were stimulated with goat antihuman F(ab’)2 anti-IgM and data were acquired for a further 3.5 min. Cells were then treated with ionomycin (1 μM; Merck) and data were acquired for 2 min. Calcium responses were quantified by calculating area under the curve (AUC) in FlowJo (Becton Dickinson) from the point of addition of anti-IgM to the addition of ionomycin.

IGF1R = molecular target: T8, IGF1R (Homo sapiens, UniProt P08069); assay: KINOMEscan ScanTK; type: binding
T8 construct: purchased Eurofins DiscoverX KINOMEscan (scanTK)
T8 sequence (P08069 31-1367): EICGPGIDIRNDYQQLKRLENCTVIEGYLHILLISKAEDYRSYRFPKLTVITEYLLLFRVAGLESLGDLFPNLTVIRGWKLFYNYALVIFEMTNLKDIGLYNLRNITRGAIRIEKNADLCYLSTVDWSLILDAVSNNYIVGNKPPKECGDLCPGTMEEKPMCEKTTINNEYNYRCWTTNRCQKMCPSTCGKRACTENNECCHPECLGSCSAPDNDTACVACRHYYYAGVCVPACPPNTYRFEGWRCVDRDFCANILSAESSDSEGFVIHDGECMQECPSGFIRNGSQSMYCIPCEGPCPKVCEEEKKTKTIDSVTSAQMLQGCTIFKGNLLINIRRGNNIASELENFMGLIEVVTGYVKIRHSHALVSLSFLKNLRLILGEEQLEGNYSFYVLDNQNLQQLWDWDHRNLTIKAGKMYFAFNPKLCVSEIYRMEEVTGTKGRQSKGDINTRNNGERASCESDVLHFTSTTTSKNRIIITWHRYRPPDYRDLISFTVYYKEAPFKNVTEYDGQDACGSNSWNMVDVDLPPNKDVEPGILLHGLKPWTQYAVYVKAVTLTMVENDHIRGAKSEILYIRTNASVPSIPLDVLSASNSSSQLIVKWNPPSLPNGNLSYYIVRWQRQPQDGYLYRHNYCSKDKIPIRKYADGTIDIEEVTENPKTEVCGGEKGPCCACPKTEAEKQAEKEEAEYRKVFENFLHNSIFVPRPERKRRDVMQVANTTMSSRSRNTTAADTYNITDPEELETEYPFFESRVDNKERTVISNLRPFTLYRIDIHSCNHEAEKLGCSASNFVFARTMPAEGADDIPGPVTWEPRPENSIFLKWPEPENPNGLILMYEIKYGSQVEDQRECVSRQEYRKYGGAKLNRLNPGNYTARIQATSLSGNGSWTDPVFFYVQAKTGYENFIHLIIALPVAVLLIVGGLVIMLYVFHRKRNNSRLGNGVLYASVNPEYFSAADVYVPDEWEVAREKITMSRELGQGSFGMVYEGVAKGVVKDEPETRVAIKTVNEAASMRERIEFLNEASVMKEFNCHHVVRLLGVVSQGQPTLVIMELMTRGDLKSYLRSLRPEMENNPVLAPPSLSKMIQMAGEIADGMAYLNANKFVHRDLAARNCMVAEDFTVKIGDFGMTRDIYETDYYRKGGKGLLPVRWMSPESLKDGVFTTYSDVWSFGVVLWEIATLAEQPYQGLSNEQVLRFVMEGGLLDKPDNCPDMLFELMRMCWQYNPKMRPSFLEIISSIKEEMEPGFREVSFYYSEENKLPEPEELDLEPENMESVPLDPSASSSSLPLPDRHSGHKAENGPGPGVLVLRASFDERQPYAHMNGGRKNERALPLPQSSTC

FGFR2 = molecular target: T9, FGFR2 (Homo sapiens, UniProt P21802); assay: KINOMEscan ScanTK; type: binding
T9 construct: purchased Eurofins DiscoverX KINOMEscan (scanTK)

HCK = molecular target: T10, HCK (Homo sapiens, UniProt P08631); assay: KINOMEscan ScanTK; type: binding
T10 construct: purchased Eurofins DiscoverX KINOMEscan (scanTK)

EPHA5 = molecular target: T11, EPHA5 (Homo sapiens, UniProt P54756); assay: KINOMEscan ScanTK; type: binding
T11 construct: purchased Eurofins DiscoverX KINOMEscan (scanTK)
T11 sequence (P54756 25-1037): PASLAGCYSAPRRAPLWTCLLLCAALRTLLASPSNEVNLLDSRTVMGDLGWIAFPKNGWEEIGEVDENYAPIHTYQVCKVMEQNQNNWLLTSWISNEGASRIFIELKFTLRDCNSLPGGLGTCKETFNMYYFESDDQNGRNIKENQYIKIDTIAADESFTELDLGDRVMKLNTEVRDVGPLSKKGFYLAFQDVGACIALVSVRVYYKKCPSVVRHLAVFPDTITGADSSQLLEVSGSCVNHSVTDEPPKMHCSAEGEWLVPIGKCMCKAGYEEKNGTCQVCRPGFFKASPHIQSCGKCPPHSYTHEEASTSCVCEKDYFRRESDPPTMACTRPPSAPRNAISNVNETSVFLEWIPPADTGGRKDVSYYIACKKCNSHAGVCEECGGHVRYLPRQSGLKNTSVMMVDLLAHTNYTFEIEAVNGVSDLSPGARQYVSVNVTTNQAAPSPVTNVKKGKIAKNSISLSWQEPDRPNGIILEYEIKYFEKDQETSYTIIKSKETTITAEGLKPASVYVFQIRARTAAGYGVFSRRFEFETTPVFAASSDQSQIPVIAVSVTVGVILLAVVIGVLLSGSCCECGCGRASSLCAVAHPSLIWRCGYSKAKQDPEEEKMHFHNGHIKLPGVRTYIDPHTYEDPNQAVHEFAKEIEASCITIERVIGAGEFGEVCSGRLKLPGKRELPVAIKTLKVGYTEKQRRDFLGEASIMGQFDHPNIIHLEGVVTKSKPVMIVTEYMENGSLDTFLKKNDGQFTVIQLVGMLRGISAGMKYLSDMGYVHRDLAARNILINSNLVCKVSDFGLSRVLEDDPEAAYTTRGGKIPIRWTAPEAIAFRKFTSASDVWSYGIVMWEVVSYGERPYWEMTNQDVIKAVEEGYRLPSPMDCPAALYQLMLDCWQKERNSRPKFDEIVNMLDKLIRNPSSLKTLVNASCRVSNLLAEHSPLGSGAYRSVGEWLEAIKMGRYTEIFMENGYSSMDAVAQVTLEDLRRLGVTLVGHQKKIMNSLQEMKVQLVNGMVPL

Plasma stability assay = type: in vitro ADME; settings: 3 h incubation at 37 °C; 50% human plasma; 1 μM compound
[5] = system: full-length wild-type BTK; assay: Intact protein mass spectrometry, covalent modification; type: binding; settings: 2:1 ratio of compound to protein (40 μM/20 μM), 23 °C
Experimental: The proteins were injected into the sample loop and desalted for 3 min at 100 μL/min using water (0.1% formic acid) on an in-house packed POROS 20R-2 trap. Proteins were eluted into the mass spectrometer using a 15–70% ACN (0.1% formic acid) gradient in 10 min at a flow rate of 100 μL/min. Mass spectra were acquired using a Waters Synapt HDMSE mass spectrometer operated in TOF-only mode with a standard electrospray source, capillary voltage of 3200 V, and a cone voltage of 40 V with a mass range of 50–2000 m/z. Intact mass values for both free and labeled wild-type BTK were calculated from the raw m/z spectra using MaxEnt1 within MassLynx 4.1 (Waters) with a resolution of 0.05 Da and an output mass range of 65,000–85 000 Da.

Row | Compound | difference in %Control from compound Ib at 1 µM (FGFR1; @1000nM) | remaining binding at 1 µM (FGFR1; @1000nM, read-out: %Control) | remaining binding at 1 µM (FGFR1; read-out: %Control @1000nM) | difference in %Control versus compound Ib at 1 µM ([1]; @1000nM) | remaining binding at 1 µM (EPHA6; @1000nM, read-out: %Control) | remaining binding at 1 µM (EPHA6; read-out: %Control @1000nM) | remaining binding at 1 µM (ALK(C1156Y); @1000nM, read-out: %Control) | remaining binding at 1 µM (ALK(C1156Y); read-out: %Control @1000nM) | remaining binding at 1 µM ([3]; @1000nM, read-out: %Control) | remaining binding at 1 µM ([3]; read-out: %Control @1000nM) | remaining binding at 1 µM ([4]; @1000nM, read-out: %Control) | remaining binding at 1 µM ([4]; read-out: %Control @1000nM) | remaining binding at 1 µM (IGF1R; @1000nM, read-out: %Control) | remaining binding at 1 µM (IGF1R; read-out: %Control @1000nM) | remaining binding at 1 µM (FGFR2; @1000nM, read-out: %Control) | remaining binding at 1 µM (FGFR2; read-out: %Control @1000nM) | remaining binding at 1 µM (HCK; @1000nM, read-out: %Control) | remaining binding at 1 µM (HCK; read-out: %Control @1000nM) | remaining binding at 1 µM (EPHA5; @1000nM, read-out: %Control) | remaining binding at 1 µM (EPHA5; read-out: %Control @1000nM) | other results
1 | Cc1cnc(S(C)(=O)=O)nc1N1CCCC(n2nc(-c3ccc(Oc4ccccc4)cc3)c3c(N)ncnc32)C1 (centres unmarked) [Compound 8a, 1-(1-(5-Methyl-2-(methylsulfonyl)pyrimidin-4-yl)piperidin-3-yl)-3-(4-phenoxyphenyl)-1H-pyrazolo[3,4-d]pyrimidin-4-amine] | 44% | 77% | 77% | 88.5% | 100% | 100% | 85% | 85% | 76% | 76% | 84% | 84% | 100% | 100% | 85% | 85% | 6.5% | 6.5% | 95% | 95% | remaining binding at 1 µM ([1]; @1000nM, read-out: %Control): 94%; remaining binding at 1 µM ([1]; read-out: %Control @1000nM): 94%; difference in %Control from compound Ib at 1 µM (EPHA6; @1000nM): 23%; difference in %Control vs compound Ib at 1 µM (EGFR(G719C); @1000nM): 32.9%; remaining binding at 1 µM (EGFR(G719C); @1000nM, read-out: %Control): 34%; remaining binding at 1 µM (EGFR(G719C); read-out: %Control @1000nM): 34%; Ki (BTK, full length (2–659)): 9.08 ± 0.41 nM; kinact (BTK, full length (2–659)): 0.00659 ± 0.00019 s⁻¹; kinact/KI (BTK, full length (2–659)): 726000 M⁻¹ s⁻¹; difference in %Control versus compound Ib at 1 µM (ALK(C1156Y); @1000nM): -13%; stability/reactivity with 10-fold excess of GSH in PBS [2]: fully stable; difference in % of control binding versus compound Ib at 1 µM ([3]; @1000nM): 44%; %Control difference versus compound Ib at 1 µM ([4]; @1000nM): 4%; effect on anti-IgM-induced Ca2+ flux (OCI-LY7 cells): maintained for these compounds at concentrations down to 250 nM; % Control difference from reference compound Ib at 1 µM (IGF1R; @1000nM): 4%; difference in %Control vs compound Ib at 1 µM (FGFR2; @1000nM): 46%; difference in %Control from compound Ib at 1 µM (HCK; @1000nM): 1.3%; difference in %Control from compound Ib at 1 µM (EPHA5; @1000nM): -1%
2 | CCOC(=O)c1cnc(S(C)(=O)=O)nc1N1CCC[C@@H](n2nc(-c3ccc(Oc4ccccc4)cc3)c3c(N)ncnc32)C1 [Compound 8c, Ethyl (R)-4-(3-(4-Amino-3-(4-phenoxyphenyl)-1H-pyrazolo[3,4-d]pyrimidin-1-yl)piperidin-1-yl)-2-(methylsulfonyl)pyrimidine-5-carboxylate] | 53% | 86% | 86% | 94.5% | 87% | 87% | 90% | 90% | 90% | 90% | 77% | 77% | 92% | 92% | 80% | 80% | 28% | 28% | 100% | 100% | remaining binding at 1 µM ([1]; @1000nM, read-out: %Control): 100%; remaining binding at 1 µM ([1]; read-out: %Control @1000nM): 100%; difference in %Control from compound Ib at 1 µM (EPHA6; @1000nM): 10%; difference in %Control vs compound Ib at 1 µM (EGFR(G719C); @1000nM): 6.4%; remaining binding at 1 µM (EGFR(G719C); @1000nM, read-out: %Control): 7.5%; remaining binding at 1 µM (EGFR(G719C); read-out: %Control @1000nM): 7.5%; difference in %Control versus compound Ib at 1 µM (ALK(C1156Y); @1000nM): -8%; difference in % of control binding versus compound Ib at 1 µM ([3]; @1000nM): 58%; %Control difference versus compound Ib at 1 µM ([4]; @1000nM): -3%; % compound remaining, human plasma stability (Plasma stability assay): 20–50%; % Control difference from reference compound Ib at 1 µM (IGF1R; @1000nM): -4%; difference in %Control vs compound Ib at 1 µM (FGFR2; @1000nM): 41%; difference in %Control from compound Ib at 1 µM (HCK; @1000nM): 22.8%; difference in %Control from compound Ib at 1 µM (EPHA5; @1000nM): 4%
3 | COC(=O)c1cnc(S(C)(=O)=O)nc1N1CCCC(n2nc(-c3ccc(Oc4ccccc4)cc3)c3c(N)ncnc32)C1 (centres unmarked) [Compound 8b, Methyl 4-(3-(4-Amino-3-(4-phenoxyphenyl)-1H-pyrazolo[3,4-d]pyrimidin-1-yl)piperidin-1-yl)-2-(methylsulfonyl)pyrimidine-5-carboxylate] | 16% | 49% | 49% | 89.5% | 92% | 92% | 90% | 90% | 70% | 70% | 92% | 92% | 94% | 94% | 86% | 86% | 16% | 16% | 100% | 100% | remaining binding at 1 µM ([1]; @1000nM, read-out: %Control): 95%; remaining binding at 1 µM ([1]; read-out: %Control @1000nM): 95%; difference in %Control from compound Ib at 1 µM (EPHA6; @1000nM): 15%; difference in %Control vs compound Ib at 1 µM (EGFR(G719C); @1000nM): 1.7%; remaining binding at 1 µM (EGFR(G719C); @1000nM, read-out: %Control): 2.8%; remaining binding at 1 µM (EGFR(G719C); read-out: %Control @1000nM): 2.8%; Ki (BTK, full length (2–659)): 24.2 ± 0.95 nM; kinact (BTK, full length (2–659)): 0.00792 ± 0.00019 s⁻¹; kinact/KI (BTK, full length (2–659)): 328000 M⁻¹ s⁻¹; difference in %Control versus compound Ib at 1 µM (ALK(C1156Y); @1000nM): -8%; difference in % of control binding versus compound Ib at 1 µM ([3]; @1000nM): 38%; %Control difference versus compound Ib at 1 µM ([4]; @1000nM): 12%; % compound remaining, human plasma stability (Plasma stability assay): 20–50%; % Control difference from reference compound Ib at 1 µM (IGF1R; @1000nM): -2%; difference in %Control vs compound Ib at 1 µM (FGFR2; @1000nM): 47%; difference in %Control from compound Ib at 1 µM (HCK; @1000nM): 10.8%; difference in %Control from compound Ib at 1 µM (EPHA5; @1000nM): 4%
4 | C=CC(=O)N1CCC[C@@H](n2nc(-c3ccc(Oc4ccccc4)cc3)c3c(N)ncnc32)C1 [Compound 1g, Ibrutinib, reference compound] |  | 33% | 33% |  | 77% | 77% | 98% | 98% | 32% | 32% | 80% | 80% | 96% | 96% | 39% | 39% | 5.2% | 5.2% | 96% | 96% | covalent modification of full-length WT BTK (intact mass) [5]: modified full-length BTK
